In article PMC7555427, “Discovery of Icotinib-1,2,3-Triazole Derivatives as IDO1 Inhibitors” (Frontiers in Pharmacology, 2020):

Legend:
IDO1 [1] = tested on: IDO1; design: method as in Nelp et al., 2018; conditions: previously reported; ref Nelp et al., 2018; cited from earlier work
IDO1 [2] = molecular target: T1, IDO1 (Homo sapiens, UniProt P14902); test: Hela cell-based IDO1 functional assay (kynurenine readout, IFN-γ induced); conditions: Hela cells, 100 ng/ml human IFN-γ, 18 h; Table 1 and text
T1 construct: host or cells: HeLa cells, IDO1 induced with 100 ng/ml human IFN-γ
Experimental: To perform the Hela cell based IDO1 assay, Hela cells were seeded at 50,000 cells per well into 96-well microplate in 100 μl of DMEM 10% fetal bovine serum 1% Penicillin-Streptomycin. Cells were incubated at 37°C and 5% CO2 overnight.
The next day 100 μl per well of diluted inhibitor in growth medium was added at a final concentration of 100 ng/ml human IFN-γ. Cells were incubated at 37°C in a CO2 incubator for 18 h. The next day 140 μl of medium was moved into a new 96-well plate and 20 μl of 3.05 N trichloroacetic acid (TCA) was added. The plate was incubated at 50°C for 30 min to hydrolyze N-formylkynurenine. The plate was then centrifuged at 2,500 rpm for 10 min to remove sediments. 100 μl of supernatant per well was transferred to another 96-well plate and mixed with 100 μl of 2% (w/v) 4-(Dimethylamino)benzaldehyde in acetic acid. The plate was incubated at room temperature for 10 min, the yellow color derived from kynurenine was recorded by measuring absorbance at 480 nm using a microplate reader (PerkinElmer, USA).
To investigate the IDO1 inhibition activities of the synthesized derivatives, all the new compounds and icotinib were screened via Hela cell-based functional assay using methods described in the literature ([Yue et al., 2009]; [Malachowski et al., 2016]; [Qian et al., 2016]).

[3] = tested on: Human renal epithelial cell (293T); test: Cytotoxicity assay, Cell Counting Kit-8 (CCK8), 72 h; assay type: cell-based; conditions: HEK-293T, 293T cells, CCK-8, 72 h
Experimental: Cytotoxity of the chosen compounds was evaluated by the Cell Counting Kit-8 (CCK8, DOJINDO, Japan) assay. The cells were seeded at a density of 2,000 cells per well into 96-well microplate in 100 μl of growth medium. Cells were incubated at 37°C and 5% CO2 overnight. The next day, 100 μl per well of diluted inhibitor in growth medium was added with the final concentration from 0.1nM to 100 μM. The cells were treated with DMSO as control. A series of dilutions were made in 0.1% DMSO in assay medium so that the final concentration of DMSO was 0.1% in all the treatments. Cells were incubated at 37°C and 5% CO2 for 72 h. Then, 10 μl of CCK8 was added to each well. The plates were incubated at 37°C for 2 h, and the plates were recorded by measuring the absorbance at 450 nm with the reference wavelength of 630 nm using an EnVisionMultilabel Reader (PerkinElmer). The IC50 values were calculated and determined by the concentration causing a half-maximal percent activity. All assays were conducted with three parallel samples and three repetitions.
Next, several compounds with submicromolar level of IDO1 inhibitory activities were chosen for further study. Human renal epithelial cell (293T) was chosen for CCK-8 assay to evaluation the bioactivity of these compounds.

T1 sequence (P14902 whole entry): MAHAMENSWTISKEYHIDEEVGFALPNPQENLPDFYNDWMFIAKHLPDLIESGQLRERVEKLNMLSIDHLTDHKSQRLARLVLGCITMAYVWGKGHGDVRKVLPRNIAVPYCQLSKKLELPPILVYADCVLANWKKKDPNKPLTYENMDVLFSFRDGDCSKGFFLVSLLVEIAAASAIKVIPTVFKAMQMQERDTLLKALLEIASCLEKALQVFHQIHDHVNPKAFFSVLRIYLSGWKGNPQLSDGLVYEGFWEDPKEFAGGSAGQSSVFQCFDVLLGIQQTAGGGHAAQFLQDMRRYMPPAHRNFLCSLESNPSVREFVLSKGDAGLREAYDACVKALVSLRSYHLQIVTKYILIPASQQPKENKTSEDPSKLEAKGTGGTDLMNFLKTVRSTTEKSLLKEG

SMILES | IC50 (IDO1 [2]) [µM] | IC50 (IDO1 [1]) [nM] | IC50 [3] [µM]
Fc1cccc(-n2cc(-c3cccc(Nc4ncnc5cc6c(cc45)OCCOCCOCCO6)c3)nn2)c1 [a1, {3-[1-(3-Fluoro-phenyl)-1H-[1,2,3]triazol-4-yl]-phenyl}-(7,8,10,11,13,14-hexahydro-6,9,12,15-tetraoxa-1,3-diaza-cyclododeca[b]naphthalen-4-yl)-amine] | 4.25 ± 0.08 | – | –
Clc1ccc(-n2cc(-c3cccc(Nc4ncnc5cc6c(cc45)OCCOCCOCCO6)c3)nn2)cc1 [a2, {3-[1-(4-Chloro-phenyl)-1H-[1,2,3]triazol-4-yl]-phenyl}-(7,8,10,11,13,14-hexahydro-6,9,12,15-tetraoxa-1,3-diaza-cyclododeca[b]naphthalen-4-yl)-amine] | 2.9 ± 0.37 | – | –
Fc1ccc(-n2cc(-c3cccc(Nc4ncnc5cc6c(cc45)OCCOCCOCCO6)c3)nn2)cc1 [a3, {3-[1-(4-Fluoro-phenyl)-1H-[1,2,3]triazol-4-yl]-phenyl}-(7,8,10,11,13,14-hexahydro-6,9,12,15-tetraoxa-1,3-diaza-cyclododeca[b]naphthalen-4-yl)-amine] | 18.2 ± 1.47 | – | –
COc1ccccc1-n1cc(-c2cccc(Nc3ncnc4cc5c(cc34)OCCOCCOCCO5)c2)nn1 [a4, (7,8,10,11,13,14-Hexahydro-6,9,12,15-tetraoxa-1,3-diaza-cyclododeca[b]naphthalen-4-yl)-{3-[1-(2-methoxy-phenyl)-1H-[1,2,3]triazol-4-yl]-phenyl}-amine] | 1.32 ± 0.17 | – | –
Clc1ccccc1-n1cc(-c2cccc(Nc3ncnc4cc5c(cc34)OCCOCCOCCO5)c2)nn1 [a5, {3-[1-(2-Chloro-phenyl)-1H-[1,2,3]triazol-4-yl]-phenyl}-(7,8,10,11,13,14-hexahydro-6,9,12,15-tetraoxa-1,3-diaza-cyclododeca[b]naphthalen-4-yl)-amine] | 4.88 ± 0.42 | – | –
c1ccc(-n2cc(-c3cccc(Nc4ncnc5cc6c(cc45)OCCOCCOCCO6)c3)nn2)cc1 [a6, (7,8,10,11,13,14-Hexahydro-6,9,12,15-tetraoxa-1,3-diaza-cyclododeca[b]naphthalen-4-yl)-[3-(1-phenyl-1H-[1,2,3]triazol-4-yl)-phenyl]-amine] | 0.77 ± 0.13 | – | 42.8 ± 11.8
Clc1cccc(-n2cc(-c3cccc(Nc4ncnc5cc6c(cc45)OCCOCCOCCO6)c3)nn2)c1 [a7, {3-[1-(3-Chloro-phenyl)-1H-[1,2,3]triazol-4-yl]-phenyl}-(7,8,10,11,13,14-hexahydro-6,9,12,15-tetraoxa-1,3-diaza-cyclododeca[b]naphthalen-4-yl)-amine] | 2.82 ± 0.26 | – | 3.1 ± 0.2
Ic1ccccc1-n1cc(-c2cccc(Nc3ncnc4cc5c(cc34)OCCOCCOCCO5)c2)nn1 [a8, (7,8,10,11,13,14-Hexahydro-6,9,12,15-tetraoxa-1,3-diaza-cyclododeca[b]naphthalen-4-yl)-{3-[1-(2-iodo-phenyl)-1H-[1,2,3]triazol-4-yl]-phenyl}-amine] | 2.5 ± 0.43 | – | –
COc1cccc(-n2cc(-c3cccc(Nc4ncnc5cc6c(cc45)OCCOCCOCCO6)c3)nn2)c1 [a9, (7,8,10,11,13,14-Hexahydro-6,9,12,15-tetraoxa-1,3-diaza-cyclododeca[b]naphthalen-4-yl)-{3-[1-(3-methoxy-phenyl)-1H-[1,2,3]triazol-4-yl]-phenyl}-amine] | 1.41 ± 0.08 | – | –

Continued, in another order:

IC50 (IDO1 [2]) [µM] | SMILES | IC50 (IDO1 [1]) [nM] | IC50 [3] [µM]
2.79 ± 0.46 | Brc1ccc(-n2cc(-c3cccc(Nc4ncnc5cc6c(cc45)OCCOCCOCCO6)c3)nn2)cc1 [a10, {3-[1-(4-Bromo-phenyl)-1H-[1,2,3]triazol-4-yl]-phenyl}-(7,8,10,11,13,14-hexahydro-6,9,12,15-tetraoxa-1,3-diaza-cyclododeca[b]naphthalen-4-yl)-amine] | – | –
1 ± 0.49 | Brc1ccccc1-n1cc(-c2cccc(Nc3ncnc4cc5c(cc34)OCCOCCOCCO5)c2)nn1 [a11, {3-[1-(2-Bromo-phenyl)-1H-[1,2,3]triazol-4-yl]-phenyl}-(7,8,10,11,13,14-hexahydro-6,9,12,15-tetraoxa-1,3-diaza-cyclododeca[b]naphthalen-4-yl)-amine] | – | –
> 100 | FC(F)(F)c1ccc(-n2cc(-c3cccc(Nc4ncnc5cc6c(cc45)OCCOCCOCCO6)c3)nn2)cc1 [a12, (7,8,10,11,13,14-Hexahydro-6,9,12,15-tetraoxa-1,3-diaza-cyclododeca[b]naphthalen-4-yl)-{3-[1-(4-trifluoromethyl-phenyl)-1H-[1,2,3]triazol-4-yl]-phenyl}-amine] | – | –
4.62 ± 0.19 | Fc1ccccc1Cn1cc(-c2cccc(Nc3ncnc4cc5c(cc34)OCCOCCOCCO5)c2)nn1 [a13, {3-[1-(2-Fluoro-benzyl)-1H-[1,2,3]triazol-4-yl]-phenyl}-(7,8,10,11,13,14-hexahydro-6,9,12,15-tetraoxa-1,3-diaza-cyclododeca[b]naphthalen-4-yl)-amine] | – | –
0.79 ± 0.21 | Cc1ccccc1Cn1cc(-c2cccc(Nc3ncnc4cc5c(cc34)OCCOCCOCCO5)c2)nn1 [a14, (7,8,10,11,13,14-Hexahydro-6,9,12,15-tetraoxa-1,3-diaza-cyclododeca[b]naphthalen-4-yl)-{3-[1-(2-methyl-benzyl)-1H-[1,2,3]triazol-4-yl]-phenyl}-amine] | – | 3.35 ± 0.89
0.59 ± 0.05 | Cc1ccc(Cn2cc(-c3cccc(Nc4ncnc5cc6c(cc45)OCCOCCOCCO6)c3)nn2)cc1 [a15, (7,8,10,11,13,14-Hexahydro-6,9,12,15-tetraoxa-1,3-diaza-cyclododeca[b]naphthalen-4-yl)-{3-[1-(4-methyl-benzyl)-1H-[1,2,3]triazol-4-yl]-phenyl}-amine] | – | 0.16 ± 0.05
1.51 ± 0.11 | Ic1ccccc1Cn1cc(-c2cccc(Nc3ncnc4cc5c(cc34)OCCOCCOCCO5)c2)nn1 [a16, (7,8,10,11,13,14-Hexahydro-6,9,12,15-tetraoxa-1,3-diaza-cyclododeca[b]naphthalen-4-yl)-{3-[1-(2-iodo-benzyl)-1H-[1,2,3]triazol-4-yl]-phenyl}-amine] | – | –
0.37 ± 0.02 | Brc1cccc(Cn2cc(-c3cccc(Nc4ncnc5cc6c(cc45)OCCOCCOCCO6)c3)nn2)c1 [a17, {3-[1-(3-Bromo-benzyl)-1H-[1,2,3]triazol-4-yl]-phenyl}-(7,8,10,11,13,14-hexahydro-6,9,12,15-tetraoxa-1,3-diaza-cyclododeca[b]naphthalen-4-yl)-amine] | – | 3.1 ± 0.2
0.56 ± 0.16 | c1ccc(Cn2cc(-c3cccc(Nc4ncnc5cc6c(cc45)OCCOCCOCCO6)c3)nn2)cc1 [a18, [3-(1-Benzyl-1H-[1,2,3]triazol-4-yl)-phenyl]-(7,8,10,11,13,14-hexahydro-6,9,12,15-tetraoxa-1,3-diaza-cyclododeca[b]naphthalen-4-yl)-amine] | – | 3.08 ± 0.59
1.5 ± 0.45 | Brc1ccccc1Cn1cc(-c2cccc(Nc3ncnc4cc5c(cc34)OCCOCCOCCO5)c2)nn1 [a19, {3-[1-(2-Bromo-benzyl)-1H-[1,2,3]triazol-4-yl]-phenyl}-(7,8,10,11,13,14-hexahydro-6,9,12,15-tetraoxa-1,3-diaza-cyclododeca[b]naphthalen-4-yl)-amine] | – | –
0.76 ± 0.07 | COc1cccc(Cn2cc(-c3cccc(Nc4ncnc5cc6c(cc45)OCCOCCOCCO6)c3)nn2)c1 [a20, (7,8,10,11,13,14-Hexahydro-6,9,12,15-tetraoxa-1,3-diaza-cyclododeca[b]naphthalen-4-yl)-{3-[1-(3-methoxy-benzyl)-1H-[1,2,3]triazol-4-yl]-phenyl}-amine] | – | 3.3 ± 1.3
0.68 ± 0.44 | Brc1cc(Br)cc(Cn2cc(-c3cccc(Nc4ncnc5cc6c(cc45)OCCOCCOCCO6)c3)nn2)c1 [a21, {3-[1-(3,5-Dibromo-benzyl)-1H-[1,2,3]triazol-4-yl]-phenyl}-(7,8,10,11,13,14-hexahydro-6,9,12,15-tetraoxa-1,3-diaza-cyclododeca[b]naphthalen-4-yl)-amine] | – | 0.74 ± 0.15
0.81 ± 0.35 | Fc1ccc(CCn2cc(-c3cccc(Nc4ncnc5cc6c(cc45)OCCOCCOCCO6)c3)nn2)cc1 [a22, (3-{1-[2-(4-Fluoro-phenyl)-ethyl]-1H-[1,2,3]triazol-4-yl}-phenyl)-(7,8,10,11,13,14-hexahydro-6,9,12,15-tetraoxa-1,3-diaza-cyclododeca[b]naphthalen-4-yl)-amine] | – | 2.6 ± 0.17
2.57 ± 0.44 | C#Cc1cccc(Nc2ncnc3cc4c(cc23)OCCOCCOCCO4)c1 [icotinib] | – | –
